{
  "source": "patent US6800659B2",
  "about": "“Compounds for modulating cell proliferation” (HSC Research and Development Limited Partnership, priority 2000, dated 2004)",
  "key": {"[1]": {"test": "Retention in blood after I.V. injection", "assay_type": "in vivo", "settings": "30 minutes after I.V. injection"}, "[2]": {"test_system": "acute lymphoblastic leukemia, Philadelphia positive ALL, acute myeloid leukemia, myeloma and B-lineage lymphoma", "test": "Growth of cancer cells in culture, summary over cell types", "assay_type": "cell-based"}, "[3]": {"test_system": "HuNS1 multiple myeloma cells", "test": "Colony growth of HuNS1 multiple myeloma cells in methylcellulose culture", "assay_type": "cell-based", "description": "HuNS1 cells were plated in 35 mm petri dishes (Nunc, Gibco) in 1 ml volumes at a density of 1×10^4 cells/ml, in the absence of exogenous growth factors, containing alpha MEM plus 20% FCS (Cansera, Rexdale Ont.), and 0.9% (vol/vol) methylcellulose (Fluka, Switzerland) and the indicated concentrations of CR4. Cell cultures were incubated in a humidified atmosphere at 37° C. with 5% CO2. Colonies containing more than 20 cells were scored, using an inverted microscope, at […]."}, "[4]": {"test_system": "Ramos B cell Burkitt's lymphoma cells", "test": "In vitro purging of Ramos B cell Burkitt's lymphoma cells", "assay_type": "cell-based", "settings": "50 μM, 5 hours exposure (FIG. 18)", "description": "For the purging assay, the cells were resuspended in complete medium with or without CR4 as indicated and incubated at 37° C., 5% CO2 for 0-5 hours. Cells were then washed thoroughly with medium to remove the CR4, resuspended and plated in 1 ml volumes, in the absence of exogenous growth factors, into 35 mm petri dishes (Nunc, Gibco) containing RPMI 1640 (Gibco) plus 10% FCS (Cansera Rexdale, ON.) in 0.9% (vol/vol) methylcellulose (Fluka, Switzerland). Cultures were set at 37° C., 5% CO2 in a humidified atmosphere. Colonies consisting of more than 20 cells were counted at 12 days or earlier using an inverted microscope."}, "normal bone marrow cells": {"test_system": "normal bone marrow cells", "test": "In vitro purging of normal bone marrow, then colony assay", "assay_type": "cell-based", "description": "Heparinized bone marrow cells were layered over Percoll (1.077 gm/ml) (Pharmacia Fine Chemical, Piscataway N.J.) and centrifuged at 400 g at 4° C. for 10 minutes to remove neutrophils and RBCs.\nFor the purging process, the cells were resuspended at 1×10^6/ml in complete medium with or without 50 μM CR4. The cells were incubated with the CR4 for two and a half hours at 37° C., 5% CO2. At the end of this period the cells were thoroughly washed in medium to remove CR4 and then cultured at 2×10^5 cells/ml in IMDM (OCl, Toronto) containing 0.9% (vol/vol) methylcellulose supplemented with 30% FCS (Cansera Rexdale, ON.) or normal human plasma, a cocktail of cytokines containing G-CSF (10 ng/ml, Amgen), IL-3 (40 U/ml, Immunex), MGF (50 ng/ml, Immunex), Etryhropoietin (2 u/ml, Epprex) or TPO (10 ng/ml, Amgen) and 5×10^−5M b-2-mercaptoethanol. The culture mixture was plated in 1 ml volumes into 35 mm petri dishes and incubated at 37° C., 5% CO2 in a humidified atmosphere. All cultures were evaluated at 14 days for the number of BFU-E colonies (defined as aggregates of more than 500 hemaglobinized cells or, 3 or more erythroid subcolonies), CFU-C colonies (defined as granulocyte or monocyte-macrophage cells or both) and CFU-GEMM colonies (a mixed population comprising of all elements).\nFor the purging process, the cells were resuspended at 1×10^6/ml in complete medium with or without 50 μM CR11. The cells were incubated with the tryrphostin for seven hours at 37° C., 5% CO2. At the end of this period the cells were thoroughly washed in medium to remove CR11 and then cultured at 2×10^5 cells/ml in IMDM (OCl, Toronto) containing 0.9% (vol/vol) methylcellulose supplemented with 30% FCS (Cansera Rexdate, ON.) or normal human plasma, a cocktail of cytokines containing G-CSF (10 ng/ml, Amgen), IL-3 (40 U/ml, Immunex), MGF (50 ng/ml, Immunex), Erythropoietin (2 u/ml, Epprex) or TPO (10 ng/ml, Amgen) and 5×10^−5M β-2-mercaptoethanol. The culture mixture was plated in 1 ml volumes into 35 mm petri dishes and incubated at 37° C., 5% CO2 in a humidified atmosphere. All cultures were evaluated at 14 days for the number of BFU-E colonies (defined as aggregates of more than 500 hemoglobinized cells or, 3 or more erythroid subcolonies), CFU-C colonies (defined as granulocyte or monocyte-macrophage cells or both) and CFU-GEMM colonies (a mixed population comprising of all elements)."}, "[5]": {"settings": "two and a half hours exposure to 50 μM (FIG. 14)"}},
  "data": [
    {"smiles": "N#C/C(=C\\C=C\\c1ccc(O)c(O)c1)C(=O)NCc1ccccc1", "note": "[CR4, (E,E)-2-(benzylaminocarbonyl)-3-(3,4-dihydroxystyryl)acrylonitrile]", "values": [
      {"measurement": "retention: presence in the blood", "setting": "[1]", "result": "still being detectable"},
      {"measurement": "effectiveness against a variety of cancer cells", "setting": "[2]; concentrations ranging from 50 nM to 5 μM", "result": "highly effective"},
      {"measurement": "effectiveness against a variety of cell types (Acute Lymphoblastic Leukemia, Philadelphia positive Leukemia, Acute Myeloid Leukemia)", "setting": "[2]; in culture", "result": "highly effective"},
      {"measurement": "toxicity to cancer cells", "setting": "[2]; low nanomolar doses, long term exposure", "result": "highly toxic"},
      {"measurement": "inhibition at 2.5 µM", "setting": "[3]; HuNS1, 2.5 μM (FIG. 19), read-out: inhibition of cell proliferation and survival", "result": "> 90", "unit": "%"},
      {"measurement": "inhibition of cell proliferation and survival", "setting": "[3]; high nanomolar to low micromolar doses (FIG. 19)", "result": "significantly inhibited"},
      {"measurement": "killing of Ramos cells", "setting": "[4]", "result": 70, "unit": "%"},
      {"measurement": "normal bone marrow growth and differentiation", "setting": "normal bone marrow cells; identical doses and times: 25-50 μM, 2.5 to 5 hour exposure", "result": "unaffected"},
      {"measurement": "BFU-E colonies", "setting": "normal bone marrow cells; [5]", "result": "slight drop"},
      {"measurement": "CFU-C colony numbers", "setting": "normal bone marrow cells; [5]", "result": "increased significantly"},
      {"measurement": "inhibition of colony formation", "setting": "normal bone marrow cells; two and a half hours exposure to 50 μM, colonies at 14 days (FIG. 14)", "result": "did not result in significant inhibition"}
    ]}
  ]
}
